Source: patent publication US6291247A, “Methods of screening for factors that disrupt neurotrophin conformation and reduce neurotrophin biological activity” (priority 1996, dated 2001)
“Also recorded” adds a separate entry of the source. Bridges are numbered along the chain shown (N, C = ends).

Key:
PC12 cells = assay: Toxicity to PC12 cells; assay type: cell-based, rat
DRG neurons = assay: BDNF-dependent neurite outgrowth of DRG neurons; assay type: cell-based, chick; details: n = 8
Protocol: Dissosiated cells enriched for sensory neurons were prepared from ED8 chick DRG as described (Dostaler, S. M. et al. Characterization of a distinctive motif of the low molecular weight neurotrophin receptor that modulates NGF-mediated neurite growth. Eur. J. Neurosci. 8, 870-879 (1996)). Neurons were seeded at a density of 800-1000 cells/well in Ham's F-12 containing 5% FCS and NGF at 10 pM into wells of Terasaki plates treated with polyysine. The cells were incubated with the indicated additives at 37° C. in a 5% CO2 atmosphere. The cells on the entire lower horizontal surface of the well were scored for neurite growth at 18-20 hours using an inverted microscope fitted with phase contrast optics. A neurite was scored if its caliber from the origin to terminal was constant and its length was equal to or greater than 1.5 cell body diameters. Neurite growth was corrected for background (no NGF).
Human recombinant BDNF and human recombinant NT-3 were obtained from Alomone Laboratories (Israel). The iodination, crosslinking, and binding experiments using BDNF and NT-3 were performed using the methods described above for NGF. Neurite outgrowth assays were performed as described in the presence of 4.0 nM NT-3 or 8.0 nM BDNF.

BDNF = details: Rashid et al. 1995; cited from earlier work

Row | Compound | Toxicity (PC12 cell viability) (PC12 cells; 100 μM) [% control] | Toxicity to PC12 cells (PC12 cells; in presence of serum, up to 100 μM) | Neurite Outgrowth, BDNF (8.0 nM) (DRG neurons; 30 μM Zn2+) | Neurite Outgrowth, BDNF (8.0 nM) (DRG neurons; 50 μM Zn2+) | Antagonism of BDNF in vitro (BDNF)
1 | [Zn+2] [Zn^2+] | 97 ± 11 | no loss in cell viability; also recorded: not toxic | 30.0 ± 13.3 % Maximum process bearing neur | 1.4 ± 1.4 % Maximum process bearing neur | 
2 | NH2 -Cys-Gly-Ser-Glu-Val-Pro-Asn-Ser-Ala-Arg-Cys-Cys-Val-Cys-OH (H-CGSEVPNSARCCVC-OH; disulfide 1-14, 11-12) [R11, bicyclic peptide of NGF residues 68-58/108-110, two disulfide bonds] |  |  |  |  | effective antagonist
